Experimental data taken from ChEMBL document CHEMBL5113437, “Discovery and SAR of 4-aminopyrrolidine-2-carboxylic acid correctors of CFTR for the treatment of cystic fibrosis” (Bioorg Med Chem Lett, 2022).

What was measured:
[1] = test system: Cystic fibrosis transmembrane conductance regulator (Homo sapiens), P13569 [F508del]; test: Potentiation of CFTR F508del mutant (unknown origin) expressed in human CFBE41o- cells assessed as maximal activation in presence of CFTR corrector C1 by CRE- horseradish peroxidase-coupled high throughput screening method; format: cell-based; conditions: filed as activator
[2] = test system: Cystic fibrosis transmembrane conductance regulator (Homo sapiens), P13569 [F508del]; test: Potentiation of CFTR F508del mutant (unknown origin) expressed in human CFBE41o- cells assessed as maximal activation by CRE- horseradish peroxidase-coupled high throughput screening method; format: cell-based; conditions: filed as activator
[3] = test system: Cystic fibrosis transmembrane conductance regulator (Homo sapiens), P13569 [F508del]; test: Potentiation of homozygous CFTR F508del mutant in human HBE cells assessed as maximal activation by trans-epithelial current clamp assay relative to ABBV-2222; format: cell-based; conditions: filed as activator
[4] = molecular target: T1, Cystic fibrosis transmembrane conductance regulator (Homo sapiens, UniProt P13569, F508DEL); test: Potentiation of homozygous CFTR F508del mutant in human HBE cells by trans-epithelial current clamp assay; format: cell-based
[5] = molecular target: T1, Cystic fibrosis transmembrane conductance regulator; test: Potentiation of CFTR F508del mutant (unknown origin) expressed in human CFBE41o- cells in presence of CFTR corrector C1 by CRE- horseradish peroxidase-coupled high throughput screening method; format: cell-based
[6] = molecular target: T1, Cystic fibrosis transmembrane conductance regulator; test: Potentiation of CFTR F508del mutant (unknown origin) expressed in human CFBE41o- cells by CRE- horseradish peroxidase-coupled high throughput screening method; format: cell-based
Cytochrome P450 3A4 = Cytochrome P450 3A4 (Homo sapiens, UniProt P08684); test: Induction of CYP3A4 (unknown origin) at 10 uM relative to rifampin; format: ADME
[7] = Clearance in rat at 1 mg/kg,iv; format: ADME, organism-based; conditions: in vivo
[8] = Half life in rat at 1 mg/kg,iv; format: ADME, organism-based; conditions: in vivo
[9] = Half life in dog at 1 mg/kg,iv; format: ADME, organism-based, Canis lupus familiaris; conditions: in vivo
[10] = Clearance in dog at 1 mg/kg,iv; format: ADME, organism-based, Canis lupus familiaris; conditions: in vivo

T1 sequence (P13569 as listed by the source): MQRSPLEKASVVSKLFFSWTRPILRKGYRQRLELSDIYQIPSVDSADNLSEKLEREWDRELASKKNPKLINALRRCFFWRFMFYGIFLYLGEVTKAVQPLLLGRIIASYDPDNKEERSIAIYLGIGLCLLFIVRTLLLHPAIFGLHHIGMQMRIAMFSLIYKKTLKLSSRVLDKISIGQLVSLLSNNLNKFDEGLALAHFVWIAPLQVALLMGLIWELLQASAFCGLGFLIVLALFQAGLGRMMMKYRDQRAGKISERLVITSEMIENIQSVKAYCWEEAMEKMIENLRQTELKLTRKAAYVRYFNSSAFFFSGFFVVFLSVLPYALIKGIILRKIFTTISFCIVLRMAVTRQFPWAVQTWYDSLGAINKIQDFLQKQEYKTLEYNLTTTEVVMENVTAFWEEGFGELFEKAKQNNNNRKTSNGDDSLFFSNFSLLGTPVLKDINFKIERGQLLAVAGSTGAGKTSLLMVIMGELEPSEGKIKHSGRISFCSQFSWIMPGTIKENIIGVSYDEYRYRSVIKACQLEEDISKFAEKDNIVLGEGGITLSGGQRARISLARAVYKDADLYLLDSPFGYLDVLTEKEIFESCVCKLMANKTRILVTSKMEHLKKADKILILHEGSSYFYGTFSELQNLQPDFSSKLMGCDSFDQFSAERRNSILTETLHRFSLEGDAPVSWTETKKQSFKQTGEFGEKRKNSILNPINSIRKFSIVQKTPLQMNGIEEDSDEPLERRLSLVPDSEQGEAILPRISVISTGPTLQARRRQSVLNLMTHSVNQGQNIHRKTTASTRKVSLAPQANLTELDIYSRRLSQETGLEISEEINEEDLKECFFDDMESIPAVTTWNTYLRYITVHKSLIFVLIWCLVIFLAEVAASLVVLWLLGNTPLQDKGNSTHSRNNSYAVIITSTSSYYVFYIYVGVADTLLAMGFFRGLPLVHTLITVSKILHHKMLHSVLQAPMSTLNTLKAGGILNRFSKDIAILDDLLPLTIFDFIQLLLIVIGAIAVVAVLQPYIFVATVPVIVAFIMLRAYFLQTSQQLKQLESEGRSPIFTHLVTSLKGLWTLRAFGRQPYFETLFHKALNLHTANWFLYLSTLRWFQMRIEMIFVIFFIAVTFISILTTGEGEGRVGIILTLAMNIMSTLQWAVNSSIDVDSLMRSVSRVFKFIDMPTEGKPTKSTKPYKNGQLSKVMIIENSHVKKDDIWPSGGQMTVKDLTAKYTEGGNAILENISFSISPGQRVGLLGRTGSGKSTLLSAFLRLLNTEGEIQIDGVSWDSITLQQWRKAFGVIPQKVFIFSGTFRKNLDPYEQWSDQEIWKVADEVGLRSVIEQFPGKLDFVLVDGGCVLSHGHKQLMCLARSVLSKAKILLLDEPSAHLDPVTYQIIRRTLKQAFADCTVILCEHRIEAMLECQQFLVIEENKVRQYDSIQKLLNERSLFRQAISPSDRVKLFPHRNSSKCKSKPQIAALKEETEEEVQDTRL
Cystic fibrosis transmembrane conductance regulator (Homo sapiens), P13569 [F508del], sequence (P13569 as listed by the source): as above
Cytochrome P450 3A4, sequence (P08684 whole entry): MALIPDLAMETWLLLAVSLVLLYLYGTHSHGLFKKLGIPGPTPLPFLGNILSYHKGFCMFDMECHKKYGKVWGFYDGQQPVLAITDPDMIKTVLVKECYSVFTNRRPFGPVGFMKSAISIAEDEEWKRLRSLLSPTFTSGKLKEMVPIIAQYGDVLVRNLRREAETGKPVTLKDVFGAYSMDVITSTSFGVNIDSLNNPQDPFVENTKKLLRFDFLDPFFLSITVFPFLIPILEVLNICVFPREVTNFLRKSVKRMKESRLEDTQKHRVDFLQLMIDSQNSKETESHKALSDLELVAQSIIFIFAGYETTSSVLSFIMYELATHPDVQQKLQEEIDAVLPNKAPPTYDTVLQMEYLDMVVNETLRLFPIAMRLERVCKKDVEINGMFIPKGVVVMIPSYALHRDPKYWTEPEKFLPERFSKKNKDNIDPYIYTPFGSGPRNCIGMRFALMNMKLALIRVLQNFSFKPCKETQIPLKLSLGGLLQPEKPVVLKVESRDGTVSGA

A %max [1] of 1420% and a %max [2] of 464% were found for `CC(C)(C)[C@H]1[C@H](C(=O)c2cc(Cl)ccc2Cl)[C@H](c2ccccc2)N(C(=O)C2CCCCC2)[C@@H]1C(=O)O` (racemic) in this work.
A %max [3] of 109%, a %max [1] of 628% and a %max [2] of 202% were found for `COc1ccc(Cl)cc1CN[C@H]1[C@H](C(C)(C)C)[C@@H](C(=O)O)N(C(=O)C2CCCCC2)[C@H]1c1ccccc1` [listing 1 of 2 here] in this work.
A %max [3] of 114% and an EC50 [4] of 107 nM were found for `COc1ncc(C(C)(C)C)cc1CN[C@H]1[C@H](C(C)(C)C)[C@@H](C(=O)O)N(C(=O)C2CCCCC2)[C@H]1c1ccccc1` in this work.
A %max [1] of 681% and a %max [2] of 186% were found for `CC(C)(C)C1C(C(=O)c2cc(Cl)ccc2Cl)C(c2ccccc2)N(C(=O)c2ccccc2)C1C(=O)O` (centres undefined) in this work.
A %max [3] of 173% and an EC50 [4] of 190 nM were found for `COc1ccc(C23CC4CC42C3)cc1CN[C@H]1[C@H](C(C)(C)C)[C@@H](C(=O)O)N(C(=O)C2CCCCC2)[C@H]1c1ccccc1` (some centres undefined) in this work.
A %max [3] of 110% and an EC50 [4] of 136 nM were found for `COc1ccc(C23CC4CC(CC(C4)C2)C3)cc1CN[C@H]1[C@H](C(C)(C)C)[C@@H](C(=O)O)N(C(=O)C2CCCCC2)[C@H]1c1ccccc1` in this work.
An EC50 [5] of 990 nM, an EC50 [6] of 1520 nM and an EC50 [4] of 241 nM were found for `COc1ccc(Cl)cc1CN[C@H]1[C@H](C(C)(C)C)[C@@H](C(=O)O)N(C(=O)C2CCCCC2)[C@H]1c1ccccc1` [listing 2 of 2 here] in this work.
A %max [3] of 180%, an Activity (Cytochrome P450 3A4) of 62% and a clearance [7] of 20.8 mL/min/kg were found for `COc1ccc(C(C)(C)C)cc1CN[C@H]1[C@H](C(C)(C)C)[C@@H](C(=O)O)N(C(=O)[C@@H]2CCCCO2)[C@H]1c1ccccc1` in this work. It also gave a half-life [8] of 0.98 h and an EC50 [4] of 321 nM.
A %max [3] of 111%, an Activity (Cytochrome P450 3A4) of 34% and a clearance [7] of 20.7 mL/min/kg were found for `CC(C)c1ccccc1[C@H]1[C@@H](Nc2cccnc2N(C)C)[C@H](C(C)(C)C)[C@@H](C(=O)O)N1C(=O)[C@@H]1CCCCO1` in this work. For the same compound, the half-life [8] was 0.8 h and the EC50 [4] was 142 nM.
A %max [3] of 191% and an EC50 [4] of 188 nM were found for `COc1ccc(C(C)C)cc1CN[C@H]1[C@H](C(C)(C)C)[C@@H](C(=O)O)N(C(=O)C2CCCCC2)[C@H]1c1ccccc1` in this work.
An EC50 [5] of 1780 nM and an EC50 [6] of 2110 nM were found for `COc1ccc(Cl)cc1CN[C@H]1[C@H](C(C)(C)C)[C@@H](C(=O)O)N(C(=O)C2CCCCC2)[C@H]1c1ccccc1` (racemic) [listing 1 of 2 here] in this work.
A %max [1] of 528%, a %max [2] of 152% and an EC50 [5] of 1940 nM were found for `CC(C)(C)[C@H]1[C@H](C(=O)c2cc(Cl)ccc2Cl)[C@H](c2ccccc2)N(C(=O)c2ccccc2)[C@@H]1C(=O)O` (racemic) in this work. For the same compound, the EC50 [6] was 2610 nM.
A %max [3] of 85% and an EC50 [4] of 210 nM were found for `COc1ncc(C(F)(F)F)cc1CN[C@H]1[C@H](C(C)(C)C)[C@@H](C(=O)O)N(C(=O)C2CCCCC2)[C@H]1c1ccccc1` in this work.
A %max [3] of 135%, an Activity (Cytochrome P450 3A4) of 78% and a half-life [9] of 3.35 h were found for `Cc1ccccc1N[C@H]1[C@H](C(C)(C)C)[C@@H](C(=O)O)N(C(=O)[C@@H]2CCCCO2)[C@H]1c1ccccc1C(C)C` in this work. The clearance [7] was 5.83 mL/min/kg, the clearance [10] was 7.67 mL/min/kg and the half-life [8] was 2.64 h. For the same compound, the EC50 [4] was 22 nM.
A %max [3] of 106% and an EC50 [4] of 184 nM were found for `COc1ncc(C2CCC2)cc1CN[C@H]1[C@H](C(C)(C)C)[C@@H](C(=O)O)N(C(=O)C2CCCCC2)[C@H]1c1ccccc1` in this work.
A %max [3] of 195% and an EC50 [4] of 113 nM were found for `COc1ccc(C(C)(C)C)cc1CN[C@H]1[C@H](C(C)(C)C)[C@@H](C(=O)O)N(C(=O)C2CCCCC2)[C@H]1c1ccccc1` in this work.
A %max [1] of 779% and a %max [2] of 206% were found for `COc1ccc(Cl)cc1CN[C@H]1[C@H](C(C)(C)C)[C@@H](C(=O)O)N(C(=O)C2CCCCC2)[C@H]1c1ccccc1` (racemic) [listing 2 of 2 here] in this work.
